Data: ChEMBL document CHEMBL1201862, “PubChem BioAssay data set” (2004)
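Cells were grown in 96-well plates and exposed to each compound for 48 hours at five concentrations; endpoints were interpolated linearly between bracketing concentrations, or set to the highest concentration if not reached. Here, GI50 denotes the concentration required for 50% inhibition of growth.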 Activity calls are given as the source filed them. No stated cut-off is given here; in the data, active = GI50 up to about 1.1 µM and inactive = higher.

Experiments:
Test in all cases: NCI tumour cell line growth inhibition, 48 h
A498 = test system: A498
A549 = test system: A549
CAKI-1 = test system: CAKI-1
COLO 205 = test system: COLO 205
HL-60 = test system: HL-60
HOP-62 = test system: HOP-62
MCF7 = test system: MCF7
MDA-MB-231 = test system: MDA-MB-231
MDA-N = test system: MDA-N
MOLT-4 = test system: MOLT-4
NCI-H226 = test system: NCI-H226
NCI-H460 = test system: NCI-H460
NCI-H522 = test system: NCI-H522
NCI/ADR-RES = test system: NCI/ADR-RES
OVCAR-3 = test system: OVCAR-3
OVCAR-8 = test system: OVCAR-8
SK-MEL-28 = test system: SK-MEL-28
SK-MEL-5 = test system: SK-MEL-5
SN12C = test system: SN12C
TK-10 = test system: TK-10

Row | Compound | GI50 (A498) | GI50 (A549) | GI50 (CAKI-1) | GI50 (COLO 205) | GI50 (HL-60) | GI50 (HOP-62) | GI50 (MCF7) | GI50 (MDA-MB-231) | GI50 (MDA-N) | GI50 (MOLT-4) | GI50 (NCI-H226) | GI50 (NCI-H460) | GI50 (NCI-H522) | GI50 (NCI/ADR-RES) | GI50 (OVCAR-3) | GI50 (OVCAR-8) | GI50 (SK-MEL-28) | GI50 (SK-MEL-5) | GI50 (SN12C) | GI50 (TK-10)
1 | COc1ccc2cc(C(C)C(=O)N3CCOC3=O)ccc2c1 (centres undefined) | 71.4 µM (inactive) | > 100 µM (inactive) | > 100 µM (inactive) | > 100 µM (inactive) | > 100 µM (inactive) | > 100 µM (inactive) | > 100 µM (inactive) | > 100 µM (inactive) | > 100 µM (inactive) | > 100 µM (inactive) | > 100 µM (inactive) | > 100 µM (inactive) | > 100 µM (inactive) | > 100 µM (inactive) | > 100 µM (inactive) | > 100 µM (inactive) | > 100 µM (inactive) | > 100 µM (inactive) | > 100 µM (inactive) | > 100 µM (inactive)
2 | O=C(CCl)N1CCCCC1C1(c2cc3ccccc3[nH]2)OCCO1 (centres undefined) | 4.6 µM (inactive) | 5.61 µM (inactive) | 0.828 µM (active) | 2.94 µM (inactive) | 0.685 µM (active) | 3.12 µM (inactive) | 2.56 µM (inactive) | 2.69 µM (inactive) | 2.34 µM (inactive) | 1.85 µM (inactive) | 6.53 µM (inactive) | 9.71 µM (inactive) | 0.194 µM (active) | 3.05 µM (inactive) | 2.01 µM (inactive) | 4.24 µM (inactive) | 11.6 µM (inactive) | 3.08 µM (inactive) | 2.25 µM (inactive) | 3.5 µM (inactive)
3 | CC(=O)OC1CC2C(=O)CC1(C)C2(C)C (centres undefined) | > 100 µM (inactive) | > 100 µM (inactive) | > 100 µM (inactive) | > 100 µM (inactive) | > 100 µM (inactive) | > 100 µM (inactive) | > 100 µM (inactive) | > 100 µM (inactive) | > 100 µM (inactive) | > 100 µM (inactive) | > 100 µM (inactive) | > 100 µM (inactive) | > 100 µM (inactive) | > 100 µM (inactive) | > 100 µM (inactive) | > 100 µM (inactive) | > 100 µM (inactive) | > 100 µM (inactive) | > 100 µM (inactive) | > 100 µM (inactive)
4 | O=C1NC(=O)C(c2c[nH]c3ccccc23)=C1c1cnc[nH]1 | > 100 µM (inactive) | > 100 µM (inactive) | > 100 µM (inactive) | 49.5 µM (inactive) | 26.9 µM (inactive) | > 100 µM (inactive) | 34.5 µM (inactive) | > 100 µM (inactive) | 74.3 µM (inactive) | 8.47 µM (inactive) | 1.79 µM (inactive) | 55.3 µM (inactive) | 56.8 µM (inactive) | > 100 µM (inactive) | 82 µM (inactive) | > 100 µM (inactive) | > 100 µM (inactive) | 22.5 µM (inactive) | > 100 µM (inactive) | 89.5 µM (inactive)
5 | CCOC(=O)c1sc2c(c1OC(=O)c1ccc(OC)cc1)c(=O)n(-c1ccccc1)c(=S)n2-c1ccccc1 | 17.1 µM (inactive) | > 100 µM (inactive) | > 100 µM (inactive) | > 100 µM (inactive) | > 100 µM (inactive) | 54 µM (inactive) | > 100 µM (inactive) | 16.4 µM (inactive) | > 100 µM (inactive) | > 100 µM (inactive) | 24.9 µM (inactive) | 94.6 µM (inactive) | 1.41 µM (inactive) | 21.8 µM (inactive) | > 100 µM (inactive) | > 100 µM (inactive) | > 100 µM (inactive) | 27.6 µM (inactive) | 75.7 µM (inactive) | > 100 µM (inactive)
6 | C=CCN1C(N)=C(C#N)C(C#N)(C#N)C1CCC (centres undefined) | > 100 µM (inactive) | > 100 µM (inactive) | > 100 µM (inactive) | > 100 µM (inactive) | > 100 µM (inactive) | > 100 µM (inactive) | > 100 µM (inactive) | > 100 µM (inactive) | > 100 µM (inactive) | > 100 µM (inactive) | > 100 µM (inactive) | > 100 µM (inactive) | > 100 µM (inactive) | > 100 µM (inactive) | > 100 µM (inactive) | > 100 µM (inactive) |  | 81.7 µM (inactive) | > 100 µM (inactive) | > 100 µM (inactive)
7 | Nc1ccn(C2CC3OCC3O2)c(=O)n1 (centres undefined) | > 100 µM (inactive) | > 100 µM (inactive) | > 100 µM (inactive) | > 100 µM (inactive) | > 100 µM (inactive) | > 100 µM (inactive) | > 100 µM (inactive) | > 100 µM (inactive) | > 100 µM (inactive) | > 100 µM (inactive) | > 100 µM (inactive) | > 100 µM (inactive) | > 100 µM (inactive) | > 100 µM (inactive) | > 100 µM (inactive) | > 100 µM (inactive) | > 100 µM (inactive) | > 100 µM (inactive) | > 100 µM (inactive) | > 100 µM (inactive)
